Experimental data: publication PMC9416257, “Design, Synthesis and Preliminary Evaluation of the Cytotoxicity and Antibacterial Activity of Novel Triphenylphosphonium Derivatives of Betulin” (Molecules, 2022)

Experiments:
[1] = test system: HCT 116 (colorectal carcinoma cell line); experiment: Cytotoxicity, CCK-8 cell viability assay; format: cell-based; conditions: Homo sapiens, HCT-116; CCK-8 assay; incubation time 24 h; mean ± SD (n = 3); read-out: Activity IC50, HCT 116
Procedure: (§1) The obtained new molecular hybrids of BN were screened in order to initially investigate their cytotoxicity as well as examine the relationships between the structure and biological effect. The common element of all of the tested compounds was the presence of a lipophilic moiety (CH2)nTPP^⊕ (n = 3, 4, 5). The research was conducted on two groups of compounds: 28-TPP^⊕ BN and 3,28-bisTPP^⊕ BN. Their cytotoxicity was investigated on two cancer cell lines: HCT 116 (colorectal carcinoma cell line) and MCF-7 (human breast adenocarcinoma cell line). The proliferation of tumor cells treated with the tested compounds (7 and 9) at 12.5–3.125 µM concentrations were determined after 24 h of incubation. Additionally, all compounds were tested against the NHDF cell line (Normal Human Dermal Fibroblast cells) to assess their safety. Half-maximal inhibitory concentrations (IC50) of triphenylphosphonium analogs of BN were determined using a CCK-8 assay and are summarized in Table 2.
(§2) The human colorectal carcinoma cell line (HCT 116) and the human breast adenocarcinoma cell line (MCF-7) cells were purchased from the American Type Culture Collection (ATCC, Manassas, VA, USA). The Normal Human Dermal Fibroblast (NHDF) cells were purchased from Lonza (Dermal Fibroblasts, Lonza, Poland). All cells were cultured under standard conditions at 37 °C in a humidified atmosphere at 5% CO2 in DMEM/F12 medium (PAA) supplemented with 10% of heat-inactivated fetal bovine serum (FBS, EURx, Gdansk, Poland) and antibiotics (penicillin/streptomycin).
(§3) Cells were seeded at 7500 (HCT 116) or 10,000 (MCF-7, NHDF) cells/well in 96-well plates. After 24 h, the culture medium was removed and 100 µL of fresh medium containing the test compounds at 0–12.5 µM concentrations was added to the culture wells. The test compounds were dissolved in DMSO to obtain a stock solution with a concentration of 5 mM (betulin) or 10 mM (other test compounds). The stock solution was diluted with the fresh culture medium to the desired concentration. Controls were cells grown in medium without the addition of test compounds. After 24 h of incubation with the test compounds, 10 µL of CCK-8 reagent (Bimake, Houston, TX, USA) was added to each well. After 2 h, the absorbance of the samples was measured at a wavelength of 450 nm using a microplate reader (Epoch, BioTek Instruments, Winooski, VT, USA). The determinations were conducted in at least three biological replications (each biological replication contained 3 technical replications). The cell viability rate was calculated using CalcuSyn software (version 2.0, Biosoft, Cambridge, UK).

[2] = test system: MCF-7 (human breast adenocarcinoma cell line); experiment: Cytotoxicity, CCK-8 cell viability assay; format: cell-based; conditions: MCF7, CCK-8 assay, incubation time 24 h, mean ± SD (n = 3), read-out: Activity IC50, MCF-7
Procedure: as §1, §2
as §3, with “After 24 h, the culture medium was removed and 100 µL of fresh medium containing the test compounds at 0–12.5 µM concentrations was added to the culture wells.” left out

[3] = test system: NHDF (Normal Human Dermal Fibroblast cells); experiment: Cytotoxicity, CCK-8 cell viability assay (safety on normal cells); format: cell-based; conditions: CCK-8 assay, incubation time 24 h, mean ± SD (n = 3), read-out: Activity IC50, NHDF
Procedure: as §1, §2, §3

S. aureus ATCC 25923 = experiment: Antibacterial assay, optical density of culture in TSB; format: cell-based, Staphylococcus aureus; conditions: 18 h; for Difference between optical density before and after culture, S. aureus ATCC 25923: 37 °C; for Inhibition of growth of S. aureus ATCC 25923 (in words): 250 µM
Procedure: (§4) Investigations were carried out using different concentrations of solutions from 25 to 250 µM. A 25 µM concentration of the tested derivatives was not enough to inhibit the growth of […]. When the concentration of analogs 7d–7f and 9a–9c increased to 200 µM, the growth of S. aureus ATCC 25923 and S. epidermidis ATCC 12228 was inhibited. Furthermore, the optical density of all compounds remained unchanged after 18 h of bacteria culture. In the case of analogs 7a–7c, the optical density values were between 0.9 and 2.2 when they were cultured with S. aureus ATCC 25923. The bacterial growth was slower compared to the control sample (TSB-culture medium). […] In the case of analog 7c, the optical density increased up to […] after 18 h of the sample culture with both kinds of Gram-positive bacteria. In contrast, the reference sample’s (TSB) optical density increased to 7.5 for S. aureus ATCC 25923, and 4.9 for S. epidermidis ATCC 12228 after 18 h of bacteria culture. […] All of the analog values of the measured optical density were similar to that of the reference sample (5.0–5.1, Table 3).
(§5) Antibacterial analysis was performed using the S. aureus ATCC 25923, S. epidermidis ATCC 12228, and Escherichia coli ATCC 25922 bacteria strains. The test compounds were dissolved in DMSO to obtain a stock solution with a concentration of 5 mM (betulin) or 10 mM (other test compounds). The stock solution was diluted with water to the desired concentration (25–250 µM). Then, 1 mL of the investigated solutions was mixed with 1 mL of culture medium (TSB, Biomaxima, Lublin, Poland) in a sterile glass tube. The initial concentration of bacteria was around 5 × 10^6 CFU/mL. The concentration of bacteria was measured using an optical densitometer before and after 18 h of bacteria culture in glass tubes at 37 °C (incubator POL-EKO, Wodzislaw Slaski, Poland). The investigations were repeated for three independent samples. The control sample was the culture medium without any supplementation.

[4] = test system: S. epidermidis ATCC 12228; experiment: as above; format: cell-based, Staphylococcus epidermidis; conditions: 18 h; for Difference between optical density before and after culture, S. epidermidis ATCC 12228: 37 °C; for Inhibition of growth of S. epidermidis ATCC 12228 (in words): 250 µM
Procedure: as §4, §5

[5] = test system: Escherichia coli ATCC 25922; experiment: as above; format: cell-based; conditions: 37 °C, 18 h; also: key: 0: no difference between samples after 18 h of bacteria culture (bacteria grow was inhibited); neg: negative results (analog BN did not inhibit bacteria growing)
Procedure: as §4, §5

SMILES	IC50 [1] [µM]	IC50 [2] [µM]	IC50 [3] [µM]	Difference between optical density before and after culture, S. aureus ATCC 25923 (S. aureus ATCC 25923; 200 μM)	Difference between optical density before and after culture, S. aureus ATCC 25923 (S. aureus ATCC 25923; 250 μM)	Inhibition of growth of S. aureus ATCC 25923 (in words) (S. aureus ATCC 25923)	Difference between optical density before and after culture, S. epidermidis ATCC 12228 ([4]; 200 μM)	Difference between optical density before and after culture, S. epidermidis ATCC 12228 ([4]; 250 μM)	Inhibition of growth of S. epidermidis ATCC 12228 (in words) [4]	Difference between optical density before and after culture, Escherichia coli ATCC 25922 ([5]; 200 μM)	Difference between optical density before and after culture, Escherichia coli ATCC 25922 ([5]; 250 μM)
C=C(C)[C@@H]1CC[C@]2(COC(=O)CCC(=O)OCCC[P+](c3ccccc3)(c3ccccc3)c3ccccc3)CC[C@]3(C)C(CCC4[C@@]5(C)CC[C@H](OC(C)=O)C(C)(C)C5CC[C@]43C)C12 (some centres unmarked) [7a, 3-O-Acetyl-28-O’-(3’-(3"-triphenylphosphoniopropyloxycarbonyl)propanoyl)betulin bromide]	5.56 ± 0.28	13.7 ± 0.54	9.68 ± 0.27	0.9 McFarland’s scale (CFU/mL)	0	greatly inhibited the growth	neg	0	greatly inhibited the growth	neg	neg
C=C(C)[C@@H]1CC[C@]2(COC(=O)CCC(=O)OCCCC[P+](c3ccccc3)(c3ccccc3)c3ccccc3)CC[C@]3(C)C(CCC4[C@@]5(C)CC[C@H](OC(C)=O)C(C)(C)C5CC[C@]43C)C12 (some centres unmarked) [7b, 3-O-Acetyl-28-O’-(3’-(4"-triphenylphosphoniobutyloxycarbonyl)propanoyl)betulin bromide]	5.77 ± 0.27	14.3 ± 0.38	10.7 ± 0.25	2.2 McFarland’s scale (CFU/mL)	0	greatly inhibited the growth	neg	0	greatly inhibited the growth	neg	neg
C=C(C)[C@@H]1CC[C@]2(COC(=O)CCC(=O)OCCCCC[P+](c3ccccc3)(c3ccccc3)c3ccccc3)CC[C@]3(C)C(CCC4[C@@]5(C)CC[C@H](OC(C)=O)C(C)(C)C5CC[C@]43C)C12 (some centres unmarked) [7c, 3-O-Acetyl-28-O’-(3’-(5"-triphenylphosphoniopentyloxycarbonyl)propanoyl)betulin bromide]	6.48 ± 0.04	15.5 ± 0.92	11.3 ± 0.53	1.0 McFarland’s scale (CFU/mL)			neg			neg	neg
C=C(C)[C@@H]1CC[C@]2(COC(=O)CC(C)(C)C(=O)OCCC[P+](c3ccccc3)(c3ccccc3)c3ccccc3)CC[C@]3(C)C(CCC4[C@@]5(C)CC[C@H](OC(C)=O)C(C)(C)C5CC[C@]43C)C12 (some centres unmarked) [7d, 3-O-Acetyl-28-O’-(3’,3’-dimethyl-3’-(3"-triphenylphosphoniopropyloxycarbonyl)propanoyl)betulin bromide]				0	0		0	0		neg	neg
C=C(C)[C@@H]1CC[C@]2(COC(=O)CC(C)(C)C(=O)OCCCC[P+](c3ccccc3)(c3ccccc3)c3ccccc3)CC[C@]3(C)C(CCC4[C@@]5(C)CC[C@H](OC(C)=O)C(C)(C)C5CC[C@]43C)C12 (some centres unmarked) [7e, 3-O-Acetyl-28-O’-(3’,3’-dimethyl-3’-(4"-triphenylphosphoniobutyloxycarbonyl)propanoyl)betulin bromide]				0	0		0	0		neg	neg
C=C(C)[C@@H]1CC[C@]2(COC(=O)CC(C)(C)C(=O)OCCCCC[P+](c3ccccc3)(c3ccccc3)c3ccccc3)CC[C@]3(C)C(CCC4[C@@]5(C)CC[C@H](OC(C)=O)C(C)(C)C5CC[C@]43C)C12 (some centres unmarked) [7f, 3-O-Acetyl-28-O’-(3’,3’-dimethyl-3’-(5"-triphenylphosphoniopentyloxycarbonyl)propanoyl)betulin bromide]	12.7 ± 0.89	50.5 ± 3.92	10 ± 0.48	0	0		0	0		neg	neg
